Reference: patent publication US20260137742A1, “Composition for Activating Transient Receptor Potential Ankyrin 1, and Composition for Enhancing Food Consumption and/or Ameliorating Decreased Appetite” (HOUSE FOODS GROUP INC., priority 2022, published 2026)

Key:
human TRPA1 (hTRPA1) [1] = molecular target: T1, human TRPA1 (hTRPA1) (Homo sapiens, UniProt O75762); experiment: Intracellular Ca2+ Imaging Assay 2 (stepwise concentrations 0.01 μM-300 μM); format: cell-based
T1 construct: expressed in transfected cells
Method: (§1) A DNA coding for human TRPA1 (hTRPA1) (GenBank accession number: NM_007332.3) was inserted into the pcDNA5/TO vector (Invitrogen) to create an expression vector. This expression vector was transfected into T-REx™-293 cells (Invitrogen) by a conventional method using Lipofectamine LTX (Invitrogen). Using 10% fetal bovine serum (FBS, Cytiva), 400μ/mL hygromycin B, and 5 μg/mL blasticidin S, which were added to Dulbecco's Modified Eagle Medium (DMEM, Nacalai Tesque) as drug selection medium, the transfectants were cultured by a conventional method and cloned to obtain an hTRPA1 stable expression cell line.
(§2) Next, an hTRPA1 stable expression cell line whose hTRPA1 expression had been induced in advance by a conventional method was prepared in a 96-well clear-bottom plate; after washing each well with PBS, 50 μL of assay buffer (Hank's Balanced Salt Solution without calcium and magnesium ions, containing 1 mM CaCl2 dihydrate, 20 mM HEPES, 0.1% BSA, and 4 μM Calbryte™ 520 AM (manufactured by AAT BioQuest)) was added and incubated for 45 minutes at 33° C. After washing with assay buffer, 100 μL of assay buffer was added to each well.
(§3) This plate was set in FlexStation3 (Molecular Devices) and the fluorescence intensity (excitation at 490 nm, emission at 525 nm) was measured every 2 seconds at 31° C.; 30 seconds after the start of measurement, 100 μL of assay buffer containing the negative control DMSO (final concentration: 20 μL/mL), the positive control allyl isothiocyanate (AITC) (AITC was dissolved in DMSO; final concentration: 30 μM), each mushroom extract solution described above, or lenthionine (manufactured by Ambeed, Inc.) (lenthionine was dissolved in DMSO; final concentration: 50 μM) was added. In addition, to determine the reference for fluorescence intensity, wells to which assay buffer containing ionomycin (final concentration: 10 µM after addition) was added were prepared instead of the test samples.
(§4) Fluorescence intensity measurement was continued until 120 seconds from the start; the TRPA1-activating ability of the test samples and so forth was calculated using the formula below.
Aside from using samples in which the concentrations of AITC or lenthionine were set stepwise in the range of 0.01 μM-300 μM, the procedure was the same as in (2) above; the TRPA1-activating abilities of each sample were measured.

human TRPA1 (hTRPA1) [2] = molecular target: T1, human TRPA1 (hTRPA1); experiment: Intracellular Ca2+ Imaging Assay 1 (TRPA1 activation rate, hTRPA1 stable expression cell line); format: cell-based; conditions: for TRPA1 Activation Rate (Mean ± Standard Error): relative to ionomycin, n = 6
Method: as §1
Two hundred microliters of each mushroom extract solution prepared in item 1 (1) was dispensed and the solvent was removed under vacuum using a desiccator. The dried residue left in the container was dissolved in 1 mL of assay buffer (Hank's Balanced Salt Solution without calcium and magnesium ions, containing 1 mM CaCl2 dihydrate, 20 mM HEPES, and 0.1% BSA). […]
as §3, §4
Fmax[s]: maximum fluorescence intensity after adding the test sample or positive control […]
Fmax[I]: maximum fluorescence intensity after adding ionomycin

human TRPA1 (hTRPA1) [3] = molecular target: T1, human TRPA1 (hTRPA1); experiment: Intracellular Ca2+ Imaging Assay 3 (with or without TRPA1-specific antagonist A-967079); format: cell-based
Method: as §1, §2, §3, §4
Samples of 30 μM AITC, 100 μM or 5 μM lenthionine, or DMSO were used; the test was performed either in the presence of the TRPA1-specific antagonist A-967079 (1 μM) or in the absence thereof (DMSO: 20 μL/mL); apart from this, the procedure was the same as in (3) above, and the TRPA1-activating abilities of each sample were measured.

Male ICR mice = experiment: Test 1 for Ameliorating Decreased Appetite (food intake in mice after single gastric gavage); format: in vivo; conditions: for Food Intake (Mean ± Standard Error, n = 10): lenthionine 50 μmol/kg body weight, single gastric gavage, 30 minutes after start of feeding
Method: Male ICR mice were kept in individual cages with ALPHA-dri (Shepherd Specialty Papers) as bedding, and they were fed a powdered diet (CE-2, CLEA Japan) using a powder feeder for mice (SN-950, Shinano Seisakusho Co., Ltd.), with ad libitum feeding and free access to water, for at least one week for acclimatization. During the few days prior to the experiment, daily handling and gavage training using a feeding needle (FG4202, Fuchigami Kikai) were performed.
As test samples, the following were prepared for each of carrier solution (containing, by volume, 5% dimethyl sulfoxide, 1% Tween80, and 94% corn oil) and lenthionine solution (carrier solution containing 0.94 mg lenthionine per 1 mL): one containing the TRPA1-specific antagonist A-967079 (1.0 μmol of A-967079 per 1 mL of the carrier solution) and one not containing it; one of these was administered to 11- to 12-week-old mice under ad libitum feeding conditions by a single gastric gavage at 9:20 a.m. at 10 mL/kg body weight. The dose of lenthionine in molar terms was 50 μmol/kg body weight. Immediately after the single gavage, at 9:30 a.m., the powdered feeder inside the cage was replaced with a new feeder loaded with powdered diet whose mass had been measured beforehand; this time point was set as the start of the feeding experiment. Thirty minutes after the start of the feeding experiment, the mass of the feeder and any spilled feed in the cage was measured, and the food intake (g) was calculated (n=10).

T1 sequence (O75762 whole entry): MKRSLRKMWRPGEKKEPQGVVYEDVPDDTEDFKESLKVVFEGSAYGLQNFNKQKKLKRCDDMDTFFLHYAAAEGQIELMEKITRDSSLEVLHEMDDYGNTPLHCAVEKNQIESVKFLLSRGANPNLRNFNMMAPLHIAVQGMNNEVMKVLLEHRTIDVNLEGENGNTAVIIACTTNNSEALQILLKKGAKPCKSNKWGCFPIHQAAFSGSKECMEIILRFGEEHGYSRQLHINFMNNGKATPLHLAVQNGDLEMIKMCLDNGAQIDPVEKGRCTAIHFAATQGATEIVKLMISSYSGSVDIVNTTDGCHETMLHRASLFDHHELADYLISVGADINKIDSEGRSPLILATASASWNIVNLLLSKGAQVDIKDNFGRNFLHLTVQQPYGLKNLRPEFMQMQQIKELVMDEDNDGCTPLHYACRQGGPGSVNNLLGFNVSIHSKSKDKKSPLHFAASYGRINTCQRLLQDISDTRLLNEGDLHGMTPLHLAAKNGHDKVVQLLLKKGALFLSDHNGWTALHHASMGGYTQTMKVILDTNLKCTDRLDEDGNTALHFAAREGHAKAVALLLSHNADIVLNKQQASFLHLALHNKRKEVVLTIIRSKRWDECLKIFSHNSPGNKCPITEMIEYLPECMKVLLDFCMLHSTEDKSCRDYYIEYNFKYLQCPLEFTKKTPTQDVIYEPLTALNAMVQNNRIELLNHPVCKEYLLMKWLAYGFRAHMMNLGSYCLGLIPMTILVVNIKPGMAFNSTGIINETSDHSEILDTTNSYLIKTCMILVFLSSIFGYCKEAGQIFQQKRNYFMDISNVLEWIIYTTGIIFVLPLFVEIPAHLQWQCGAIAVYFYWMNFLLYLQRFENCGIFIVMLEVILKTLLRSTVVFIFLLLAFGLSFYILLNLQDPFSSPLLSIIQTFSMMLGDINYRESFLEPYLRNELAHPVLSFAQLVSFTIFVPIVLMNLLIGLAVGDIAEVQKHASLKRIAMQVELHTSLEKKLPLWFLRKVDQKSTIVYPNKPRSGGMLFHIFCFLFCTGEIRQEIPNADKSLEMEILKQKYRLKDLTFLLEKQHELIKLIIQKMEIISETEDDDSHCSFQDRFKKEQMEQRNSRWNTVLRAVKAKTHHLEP

| SMILES | TRPA1 Activation Rate (Mean ± Standard Error, n = 6) (human TRPA1 (hTRPA1) [1]; 0.01 μM) [%] | TRPA1 Activation Rate (Mean ± Standard Error, n = 6) (human TRPA1 (hTRPA1) [1]; 0.1 μM) [%] | TRPA1 Activation Rate (Mean ± Standard Error, n = 6) (human TRPA1 (hTRPA1) [1]; 0.5 μM) [%] | TRPA1 Activation Rate (Mean ± Standard Error, n = 6) (human TRPA1 (hTRPA1) [1]; 1 μM) [%] | TRPA1 Activation Rate (Mean ± Standard Error, n = 6) (human TRPA1 (hTRPA1) [1]; 5 μM) [%] | TRPA1 Activation Rate (Mean ± Standard Error, n = 6) (human TRPA1 (hTRPA1) [1]; 10 μM) [%] | TRPA1 Activation Rate (Mean ± Standard Error, n = 6) (human TRPA1 (hTRPA1) [1]; 50 μM) [%] | TRPA1 Activation Rate (Mean ± Standard Error, n = 6) (human TRPA1 (hTRPA1) [1]; 100 μM) [%] | TRPA1 Activation Rate (Mean ± Standard Error, n = 6) (human TRPA1 (hTRPA1) [1]; 300 μM) [%] | other results |
| --- | --- | --- | --- | --- | --- | --- | --- | --- | --- | --- |
| C=CCN=C=S [AITC, allyl isothiocyanate, reference compound] | 4.02 ± 0.50 | 5.20 ± 0.19 | 6.19 ± 0.32 | 13.0 ± 1.79 | 64.0 ± 4.13 | 85.2 ± 3.76 | 105 ± 1.86 | 117 ± 2.57 | 119 ± 2.74 | TRPA1 Activation Rate (Mean ± Standard Error) (human TRPA1 (hTRPA1) [2]; AITC 30 μM final concentration): 106 ± 1.89%; TRPA1 Activation Rate (Mean ± Standard Error, n = 6) (human TRPA1 (hTRPA1) [3]; 30 μM, No Antagonist (DMSO 20 μL/mL)): 156 ± 1.38%; TRPA1 Activation Rate (Mean ± Standard Error, n = 6) (human TRPA1 (hTRPA1) [3]; 30 μM, With Antagonist A-967079 (1 μM)): 1.22 ± 0.06 % |
| C1SSCSSS1 [Lenthionine, 1,2,3,5,6-pentathiepane] | 2.64 ± 0.19 | 2.42 ± 0.14 | 10.2 ± 0.82 | 22.3 ± 1.04 | 53.8 ± 2.29 | 72.5 ± 2.88 | 92.6 ± 3.83 | 104 ± 1.94 | 118 ± 2.65 | TRPA1-activating effect, concentration dependence (in words) (human TRPA1 (hTRPA1) [1]; 0.01 μM-300 μM, compared with AITC): activated TRPA1 in a concentration-dependent manner, at similar intensity to AITC; TRPA1-activating effect (in words) (human TRPA1 (hTRPA1) [2]; Ca2+ imaging assay 1, summary of Table 1): activated TRPA1; TRPA1 Activation Rate (Mean ± Standard Error) (human TRPA1 (hTRPA1) [2]; lenthionine 50 μM final concentration): 93.0 ± 3.70%; TRPA1 Activation Rate (Mean ± Standard Error, n = 6) (human TRPA1 (hTRPA1) [3]; 5 μM, No Antagonist (DMSO 20 μL/mL)): 64.6 ± 1.38%; TRPA1 Activation Rate (Mean ± Standard Error, n = 6) (human TRPA1 (hTRPA1) [3]; 5 μM, With Antagonist A-967079 (1 μM)): 1.46 ± 0.14 %; TRPA1 Activation Rate (Mean ± Standard Error, n = 6) (human TRPA1 (hTRPA1) [3]; 100 μM, No Antagonist (DMSO 20 μL/mL)): 133 ± 1.36%; TRPA1 Activation Rate (Mean ± Standard Error, n = 6) (human TRPA1 (hTRPA1) [3]; 100 μM, With Antagonist A-967079 (1 μM)): 1.61 ± 0.37 %; TRPA1-activating effect in presence of TRPA1-specific antagonist (in words) (human TRPA1 (hTRPA1) [3]; A-967079 1 μM): inhibited by the TRPA1-specific antagonist; Food Intake (Mean ± Standard Error, n = 10) (Male ICR mice; No Antagonist): 0.117 ± 0.035 g; Food Intake (Mean ± Standard Error, n = 10) (Male ICR mice; With Antagonist A-967079 (1.0 μmol per 1 mL)): 0.025 ± 0.023 g; Food intake versus carrier solution (in words) (Male ICR mice; lenthionine solution with TRPA1-specific antagonist A-967079): no increase in food intake was observed; Food intake versus carrier solution (in words) (Male ICR mice; lenthionine solution, No Antagonist): food intake increased |
